Measurements from ChEMBL document CHEMBL1201862, “PubChem BioAssay data set” (2004).
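Cultured in 96-well plates, cells were exposed to test compound for 48 hours across five concentrations. Abbreviation: GI50, concentration required for 50% inhibition of growth.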 Calls of active or inactive are those of the source. Cut-off read from the data, not from the text of the source: active = GI50 up to about 1.1 µM and inactive = higher.

What was measured:
Assay in all cases: NCI anticancer screen, dose series, 48 h
HOP-62 = test system: HOP-62
SNB-75 = test system: SNB-75
KM12 = test system: KM12
SN12C = test system: SN12C
RXF 393 = test system: RXF 393
HCT-116 = test system: HCT-116
SNB-19 = test system: SNB-19
SK-MEL-2 = test system: SK-MEL-2
MCF7 = test system: MCF7
EKVX = test system: EKVX
UACC-62 = test system: UACC-62
NCI/ADR-RES = test system: NCI/ADR-RES
CCRF-CEM = test system: CCRF-CEM
SW-620 = test system: SW-620
T47D = test system: T47D
MDA-MB-435 = test system: MDA-MB-435
SK-OV-3 = test system: SK-OV-3
COLO 205 = test system: COLO 205
BT-549 = test system: BT-549
K562 = test system: K562
HT-29 = test system: HT-29
A549 = test system: A549
MDA-N = test system: MDA-N
SK-MEL-5 = test system: SK-MEL-5
LOX IMVI = test system: LOX IMVI
PC-3 = test system: PC-3
DU-145 = test system: DU-145
NCI-H460 = test system: NCI-H460
NCI-H23 = test system: NCI-H23
MOLT-4 = test system: MOLT-4
CAKI-1 = test system: CAKI-1
OVCAR-4 = test system: OVCAR-4
OVCAR-5 = test system: OVCAR-5
A498 = test system: A498
SF-268 = test system: SF-268
IGROV-1 = test system: IGROV-1
HCT-15 = test system: HCT-15
RPMI-8226 = test system: RPMI-8226
UO-31 = test system: UO-31
TK-10 = test system: TK-10
SF-539 = test system: SF-539
ACHN = test system: ACHN
Hs-578T = test system: Hs-578T
786-0 = test system: 786-0
OVCAR-3 = test system: OVCAR-3
UACC-257 = test system: UACC-257
M14 = test system: M14
HOP-92 = test system: HOP-92
NCI-H226 = test system: NCI-H226
SF-295 = test system: SF-295
MDA-MB-231 = test system: MDA-MB-231
HL-60 = test system: HL-60
U-251 = test system: U-251
SK-MEL-28 = test system: SK-MEL-28
Malme-3M = test system: Malme-3M
OVCAR-8 = test system: OVCAR-8
HCC 2998 = test system: HCC 2998
NCI-H522 = test system: NCI-H522

`CCCCOC(=O)C1CN2C(=NC1(C(F)(F)F)C(F)(F)F)Sc1ccccc12` (stereo not given) was tested, and the GI50 (HOP-62) was 82.4 µM (inactive), the GI50 (SNB-75) was 35.1 µM (inactive) and the GI50 (KM12) was 27.2 µM (inactive). For the same compound, the GI50 (SN12C) was 98.4 µM (inactive), the GI50 (RXF 393) was 24.1 µM (inactive) and the GI50 (HCT-116) was 33 µM (inactive). For the same compound, the GI50 (SNB-19) was 96.2 µM (inactive), the GI50 (SK-MEL-2) was 34.8 µM (inactive) and the GI50 (MCF7) was 32.1 µM (inactive). The GI50 (EKVX) was 37.2 µM (inactive), the GI50 (UACC-62) was 47.1 µM (inactive) and the GI50 (NCI/ADR-RES) was 27 µM (inactive). For the same compound, the GI50 (CCRF-CEM) was 30.2 µM (inactive), the GI50 (SW-620) was 49.5 µM (inactive) and the GI50 (T47D) was 16.8 µM (inactive). For the same compound, the GI50 (MDA-MB-435) was > 10 µM (inactive), the GI50 (SK-OV-3) was 78.5 µM (inactive) and the GI50 (COLO 205) was 31.8 µM (inactive). The GI50 (BT-549) was 26.1 µM (inactive), the GI50 (K562) was 12.2 µM (inactive) and the GI50 (HT-29) was 22.5 µM (inactive). The GI50 (A549) was 40.5 µM (inactive), the GI50 (MDA-N) was 60.3 µM (inactive) and the GI50 (SK-MEL-5) was 20 µM (inactive). For the same compound, the GI50 (LOX IMVI) was 43.5 µM (inactive), the GI50 (PC-3) was 16.2 µM (inactive) and the GI50 (DU-145) was 67.1 µM (inactive). The GI50 (NCI-H460) was 34.9 µM (inactive), the GI50 (NCI-H23) was 24.5 µM (inactive) and the GI50 (MOLT-4) was 23 µM (inactive). For the same compound, the GI50 (CAKI-1) was > 100 µM (inactive), the GI50 (OVCAR-4) was 45.5 µM (inactive) and the GI50 (OVCAR-5) was > 100 µM (inactive). For the same compound, the GI50 (A498) was > 100 µM (inactive), the GI50 (SF-268) was 33.8 µM (inactive) and the GI50 (IGROV-1) was 11 µM (inactive). The GI50 (HCT-15) was 45.6 µM, the GI50 (RPMI-8226) was 26.1 µM (inactive) and the GI50 (UO-31) was 19.2 µM (inactive). The GI50 (TK-10) was 30.6 µM (inactive), the GI50 (SF-539) was 44.1 µM (inactive) and the GI50 (ACHN) was 30.3 µM (inactive). The GI50 (Hs-578T) was 30.6 µM (inactive), the GI50 (786-0) was 64.3 µM (inactive) and the GI50 (OVCAR-3) was 58.5 µM (inactive). For the same compound, the GI50 (UACC-257) was 36.1 µM (inactive), the GI50 (M14) was 44.1 µM (inactive) and the GI50 (HOP-92) was 72.4 µM (inactive). For the same compound, the GI50 (NCI-H226) was 27 µM (inactive), the GI50 (SF-295) was 36.9 µM (inactive) and the GI50 (MDA-MB-231) was > 100 µM (inactive). For the same compound, the GI50 (HL-60) was 16.6 µM (inactive), the GI50 (U-251) was 41.4 µM (inactive) and the GI50 (SK-MEL-28) was 74.5 µM (inactive). For the same compound, the GI50 (Malme-3M) was 53.1 µM (inactive) and the GI50 (OVCAR-8) was 43.6 µM (inactive).
With `Clc1ccc(C2ON=C(c3ccccc3)N2C23CC4CC(CC(C4)C2)C3)cc1Cl` (stereo not given) the GI50 (HOP-62) was > 10 µM (inactive), the GI50 (SNB-75) was > 10 µM (inactive) and the GI50 (KM12) was > 10 µM (inactive). The GI50 (SN12C) was > 10 µM (inactive), the GI50 (RXF 393) was > 10 µM (inactive) and the GI50 (HCT-116) was > 10 µM (inactive). The GI50 (SNB-19) was > 10 µM (inactive), the GI50 (SK-MEL-2) was > 10 µM (inactive) and the GI50 (MCF7) was > 10 µM (inactive). The GI50 (EKVX) was > 10 µM (inactive), the GI50 (UACC-62) was > 10 µM (inactive) and the GI50 (NCI/ADR-RES) was > 10 µM (inactive). For the same compound, the GI50 (CCRF-CEM) was > 10 µM (inactive), the GI50 (SW-620) was > 10 µM (inactive) and the GI50 (T47D) was > 10 µM (inactive). For the same compound, the GI50 (MDA-MB-435) was > 10 µM (inactive), the GI50 (SK-OV-3) was > 10 µM (inactive) and the GI50 (COLO 205) was > 10 µM (inactive). The GI50 (BT-549) was > 10 µM (inactive), the GI50 (K562) was > 10 µM (inactive) and the GI50 (HT-29) was > 10 µM (inactive). The GI50 (A549) was > 10 µM (inactive), the GI50 (MDA-N) was > 10 µM (inactive) and the GI50 (SK-MEL-5) was > 10 µM (inactive). For the same compound, the GI50 (LOX IMVI) was > 10 µM (inactive), the GI50 (PC-3) was > 10 µM (inactive) and the GI50 (DU-145) was > 10 µM (inactive). The GI50 (NCI-H460) was > 10 µM (inactive), the GI50 (NCI-H23) was > 10 µM (inactive) and the GI50 (MOLT-4) was > 10 µM (inactive). The GI50 (CAKI-1) was > 10 µM (inactive), the GI50 (OVCAR-4) was > 10 µM (inactive) and the GI50 (OVCAR-5) was > 10 µM (inactive). For the same compound, the GI50 (A498) was > 10 µM (inactive), the GI50 (SF-268) was > 10 µM (inactive) and the GI50 (IGROV-1) was > 10 µM (inactive). The GI50 (HCC 2998) was > 10 µM (inactive), the GI50 (HCT-15) was > 10 µM and the GI50 (RPMI-8226) was > 10 µM (inactive). The GI50 (UO-31) was > 10 µM (inactive), the GI50 (TK-10) was > 10 µM (inactive) and the GI50 (SF-539) was > 10 µM (inactive). For the same compound, the GI50 (ACHN) was > 10 µM (inactive), the GI50 (NCI-H522) was > 10 µM (inactive) and the GI50 (Hs-578T) was > 10 µM (inactive). The GI50 (786-0) was > 10 µM (inactive), the GI50 (OVCAR-3) was > 10 µM (inactive) and the GI50 (UACC-257) was > 10 µM (inactive). For the same compound, the GI50 (M14) was > 10 µM (inactive), the GI50 (HOP-92) was 7.13 µM (inactive) and the GI50 (NCI-H226) was > 10 µM (inactive). The GI50 (SF-295) was > 10 µM (inactive), the GI50 (MDA-MB-231) was > 10 µM (inactive) and the GI50 (U-251) was > 10 µM (inactive). The GI50 (SK-MEL-28) was 7.93 µM (inactive), the GI50 (Malme-3M) was > 10 µM (inactive) and the GI50 (OVCAR-8) was > 10 µM (inactive).
With `C=C1CC(C)(c2cccc(Nc3nc4ccccc4c4occc34)c2)OC1=O` (stereo not given) the GI50 (HOP-62) was 12.2 µM (inactive), the GI50 (SNB-75) was 5.58 µM (inactive) and the GI50 (KM12) was 5.08 µM (inactive). For the same compound, the GI50 (SN12C) was 2.83 µM (inactive), the GI50 (RXF 393) was 2.36 µM (inactive) and the GI50 (HCT-116) was 1.67 µM (inactive). The GI50 (SNB-19) was 17.2 µM (inactive), the GI50 (MCF7) was 3.71 µM (inactive) and the GI50 (EKVX) was 14.7 µM (inactive). For the same compound, the GI50 (UACC-62) was 0.65 µM (active), the GI50 (NCI/ADR-RES) was 8 µM (inactive) and the GI50 (CCRF-CEM) was 2.07 µM (inactive). The GI50 (T47D) was 3.1 µM (inactive), the GI50 (MDA-MB-435) was 5.11 µM (inactive) and the GI50 (SK-OV-3) was 13.7 µM (inactive). For the same compound, the GI50 (COLO 205) was 4.38 µM (inactive), the GI50 (BT-549) was 4.85 µM (inactive) and the GI50 (HT-29) was 4.99 µM (inactive). The GI50 (A549) was 3.92 µM (inactive), the GI50 (MDA-N) was 5.21 µM (inactive) and the GI50 (SK-MEL-5) was 15.1 µM (inactive). For the same compound, the GI50 (LOX IMVI) was 1.99 µM (inactive), the GI50 (PC-3) was 5.52 µM (inactive) and the GI50 (DU-145) was 5.6 µM (inactive). The GI50 (NCI-H460) was 15.6 µM (inactive), the GI50 (MOLT-4) was 10.6 µM (inactive) and the GI50 (CAKI-1) was 3.98 µM (inactive). The GI50 (OVCAR-4) was 7.89 µM (inactive), the GI50 (OVCAR-5) was 14.3 µM (inactive) and the GI50 (A498) was 17.7 µM (inactive). The GI50 (SF-268) was 10.5 µM (inactive), the GI50 (HCC 2998) was 2.43 µM (inactive) and the GI50 (HCT-15) was 3.52 µM. The GI50 (RPMI-8226) was 2.03 µM (inactive), the GI50 (UO-31) was 1.89 µM (inactive) and the GI50 (TK-10) was 3.56 µM (inactive). For the same compound, the GI50 (SF-539) was 1.69 µM (inactive), the GI50 (ACHN) was 4.8 µM (inactive) and the GI50 (Hs-578T) was 3.25 µM (inactive). For the same compound, the GI50 (786-0) was 1.67 µM (inactive), the GI50 (OVCAR-3) was 4.8 µM (inactive) and the GI50 (UACC-257) was 0.0218 µM (active). The GI50 (M14) was 2.84 µM (inactive), the GI50 (HOP-92) was 1.44 µM (inactive) and the GI50 (NCI-H226) was 1.5 µM (inactive). For the same compound, the GI50 (SF-295) was 16.8 µM (inactive), the GI50 (MDA-MB-231) was 5.11 µM (inactive) and the GI50 (HL-60) was 2.27 µM (inactive). For the same compound, the GI50 (U-251) was 10 µM (inactive), the GI50 (SK-MEL-28) was 13.9 µM (inactive) and the GI50 (Malme-3M) was 17.6 µM (inactive). For the same compound, the GI50 (OVCAR-8) was 6.08 µM (inactive).
